Assay results: patent publication US11730712B2, “Functionalized long-chain hydrocarbon mono- and di-carboxylic acids and derivatives thereof, and their use for the prevention or treatment of disease” (ESPERVITA THERAPEUTICS, INC., priority 2021, dated 2023)

What was measured:
[1] = tested on: C57BL/6 mice with UUO; experiment: Murine unilateral ureter obstruction (UUO) renal fibrosis model; type: in vivo, mouse; settings: 100 mg/kg daily oral gavage, 9 days after UUO
Experimental: Animal studies were carried out in accordance with the principles of laboratory animal care of the Canadian Council on Animal Care guidelines. Male C57BL/6 mice were obtained from Charles Rivers Laboratories. FIG. 13A summarizes the timeline for this experiment. UUO model was created as follows: male C57BL6J mice (8 weeks old from Charles River Laboratories) were anesthetized with 4% isofluorane and an anesthetic plane was maintained throughout surgery at 1.5-2% isofluorane with 1 L/min oxygen. A 0.5 cm incision was made longitudinally on the left flank. The left ureter and lower pole of the kidney was exposed, and the ureter was ligated with a […] in close proximity to the renal pelvis. A sham operation control group was created by surgical exposure of the left ureter and lower pole of the kidney followed by closure of the incision. Subcutaneous fluids were given (1.5 ml 0.9% NaCl) and the incision was closed with 4′0 silk sutures followed by staples for the skin. Starting the day of model creation, the animals were given a daily dose of either vehicle alone (sham surgery and UUO control, 1.5% CMC and 0.2% Tween-20) or vehicle containing Compound I-32 or Compound I-1 (at 100 mg/kg) by oral gavage for 9 days following surgery. At the end of the treatment period mice were anesthetized prior to euthanasia by bilateral thoraco-abdominal incision. Blood was collected by cardiac puncture, followed by kidney perfusion with cold saline through left ventricular cannulation. The left kidney was removed, a sample taken and fixed in formalin for histological analysis. Trichrome staining was done on formalin-fixed sections (4 μm) following deparaffinization according to manufacturers instructions (Sigma HT15-1KT). Images were quantified by measuring the percentage of positive area using Image J on micrographs captured at ×200 magnification using the BX41 Olympus microscope. Statistical analysis was performed using GraphPad Prism 8. A one-way ANOVA was used to determine significance. A p-value of less than or equal to 0.05 was used as the criterion of significance. This route was selected because it simulates oral administration to mammalian, including human, subjects and ensures that the correct dose of compound is ingested by each animal.
Immunohistochemistry. Formalin-fixed kidneys were embedded in paraffin, then sectioned at 4 μm. After deparaffinization, they were stained with Masson's trichrome to assess collagen content (Sigma Aldrich, catalogue no. HT15-1T), picrosirius red (PSR) to more specifically assess pathogenic collagens I and III (Polysciences, Inc., catalogue no. 24901-500), αSMA as a marker of activated, profibrotic fibroblasts (PIERCE, catalogue no. MA1-06110; 30 min steaming for antigen retrieval, antibody used at 1:5000 for 2 h at room temperature), CD3 to identify T-lymphocytes (Dako, catalogue no. A0452; 30 min steaming for antigen retrieval, antibody used at 1:500 overnight at 4° C.) and F4/80 to identify, macrophages (done by the McMaster Histology Facility). Slides were counterstained with hematoxylin, dehydrated twice with 90% ethanol, cleared twice with xylene, coverslipped with mounting media, and then left to dry overnight before imaging. Masson's trichrome, αSMA, CD3 and F4/80 were imaged under transmitted light and quantified using ImageJ. The Olympus IX81 fluorescence microscope driven by Metamorph was used to image and quantify PSR staining. Images were quantified by measuring the percentage of positive area. All micrographs were captured at ×20 magnification.

[2] = tested on: human hematopoietic stem and progenitor cells (CD45+CD34+); experiment: Megakaryopoiesis and platelet production in cultured hematopoietic stem and progenitor cells; type: cell-based; settings: 30 μM, added day 6
Experimental: Materials and Methods. Hematopoietic stem and progenitor cells, identified as viable CD45+CD34+ cells, were isolated from peripheral blood of healthy donors by a method known in the art (see Ivetic N. Nazi I, Karim N et al. Producing megakaryocytes from a human peripheral blood source. Transfusion 2016; 56:1066-74). These isolated cells were then analyzed for purity before being expanded for four days using a commercial supplement to increase their cell population. After expansion, the cells were analyzed for purity, washed, and stimulated with a saturating concentration of thrombopoietin (20 ng/mL) and stem cell factor (50 ng/mL) to begin megakaryopoiesis. Compound I-32 and Compound I-1 were added at this timepoint at a concentration of 30 μM. The cells were then cultured for 8 days to develop into megakaryocytes and analyzed via flow cytometry to assess their number, maturity, and platelet count as defined by CD41a, CD42b and Calcein-AM expression. In addition, Compound I-32 and Compound I-1 were added to cells during the later stages of development (day 6) to assess their impact on maturation. ABT-737 ([…]) was used as a positive control and a DMSO vehicle control (<0.15% v/v) was the negative control. […]
Statistical analysis. Statistical analyses were carried out by comparing effects on measured parameters in comparison to vehicle control. […]

Structure (SMILES) | T-lymphocyte infiltration (CD3 stain) [1] | UUO-induced increases in Trichrome and αSMA (renal fibrosis) [1] | macrophage infiltration (F4/80 stain) [1] | inhibition of megakaryopoiesis/platelet parameters after addition on day 6 of culture [2]
CC(C)(CCCCc1ccc(CCCCC(C)(C)C(=O)O)cc1)C(=O)O [Compound I-1, 6-[4-(5-carboxy-5-methylhexyl)-phenyl]-2,2-dimethylhexanoic acid] | no effect on T-lymphocytes | decreased | significantly reduced macrophage infiltration | no inhibition detected
CC(C)(CCCCc1cccc(CCCCC(C)(C)C(=O)O)c1)C(=O)O [Compound I-32, 6-[3-(5-carboxy-5-methylhexyl)-phenyl]-2,2-dimethylhexanoic acid] | no effect on T-lymphocytes | trend to reduction | significantly reduced macrophage infiltration | no inhibition detected
